In US20240092799A1, “MNK INHIBITORS” (Hepagene Therapeutics (HK) Limited, priority 2020, published 2024) one finds IC50 data, which are given here for 26 molecules.

For one assay, the target named is MNK2 (Homo sapiens (Human), UniProt Q9HBH9). As to the kind of experiment: MNK Biochemical Enzymatic Assay (ADP-Glo), MNK2 binding assay. An outline of the steps: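 Human MNK1 or MNK2 was preincubated with a 10-point, 1:3 serial dilution of compound for 15 min at 25 °C. Substrate was then added and the reaction ran 60 min at 25 °C. ADP formed was read by ADP-Glo luminescence, and IC50 came from non-linear regression.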

A further assay concerns TMD-8 cell p-IF4E. As to the kind of experiment: p-eIF4E Signaling Cellular Assay (CisBio HTRF) in TMD-8 cells. It is filed as cell-based. The settings on record: Homo sapiens, TMD8, 40 min, 40 min treatment. The method, then: p-eIF4E Signaling Cellular Assay. Phosphorylated eIF4E is assayed using the CisBio p-Eif4E HTRF assay kit. Reagents and equipment used in the assay are listed below, followed by the protocol.
Cell medium: RPMI 1640+10% FBS+1*PS, TMD-8 were cultured as recommended and assayed in exponential growth phase. • a) Plate 30 μL of cells in 384 white assay plate in appropriate medium and proper cell density (20 k/well) based on Optimization at 37° C. under 5% CO2 atmosphere • b) Dispense 90 nL of compounds diluted in DMSO and treat for 40 min at 37° C. under 5% CO2 atmosphere • c) Remove cell supernatant by flicking the plate • d) Add 16 μL of supplemented lysis buffer (1×) for 30 minutes at RT under shaking • e) Add 4 μL of premixed antibody solutions prepared in the detection buffer. Cover the plate with a plate sealer. Incubate 0/N at RT • f) Read the fluorescence emission at 665 nm and 620 nm on Envision • g) Data analysis • (1) Ratio […] signal is calculated for each well • (2) % Inhibition is calculated as follow:
% inhibition=100−(Signalcmpd-SignalAve_PC)/(SignalAve_VC-SignalAve_PC)×100. • (3) Calculate IC50 and Plot effect-dose curve of cmpds:
Calculate IC50 by fitting % Inhibition values and log of compound concentrations to nonlinear regression (dose response−variable slope) with Graphpad 8.0.
Y=Bottom+(Top−Bottom)/(1+10^((Log IC50−X)*Hill Slope)) • X: log of Inhibitor concentration; Y: % Inhibition.

MNK2, sequence (Q9HBH9 whole entry): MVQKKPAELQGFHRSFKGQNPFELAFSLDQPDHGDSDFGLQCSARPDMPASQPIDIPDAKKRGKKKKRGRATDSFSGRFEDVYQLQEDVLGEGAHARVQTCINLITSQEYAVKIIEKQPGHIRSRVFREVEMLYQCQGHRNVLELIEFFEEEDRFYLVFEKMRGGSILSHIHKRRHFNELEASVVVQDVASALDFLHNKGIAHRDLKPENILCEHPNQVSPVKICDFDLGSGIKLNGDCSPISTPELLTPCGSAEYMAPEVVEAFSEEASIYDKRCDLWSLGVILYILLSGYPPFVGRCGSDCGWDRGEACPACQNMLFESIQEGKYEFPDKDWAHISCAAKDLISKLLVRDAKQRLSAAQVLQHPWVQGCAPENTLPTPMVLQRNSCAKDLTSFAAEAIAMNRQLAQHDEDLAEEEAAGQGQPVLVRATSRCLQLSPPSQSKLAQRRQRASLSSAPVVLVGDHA

For `CC(=O)N(C)c1cccc(Nc2cc(Nc3cc(C)c4c([n+]3[O-])C3(CCCCC3)NC4=O)ncn2)n1` [Compound XXIX-AA, 4′-methyl-2′-((6-((6-(N-methylacetamido)pyridin-2-yl)amino)pyrimidin-4-yl)amino)-5′-oxo-5′,6′-dihydrospiro[cyclohexane-1,7′-pyrrolo[3,4-b]pyridine] 1′-oxide], the IC50 at MNK2 and in the assay with TMD-8 cell p-IF4E was 0.1 to 10 nM throughout.
Turning to `Cc1cccc(Nc2cc(Nc3cc(C)c4c([n+]3[O-])C3(CCCCC3)NC4=O)ncn2)n1` [Compound XXIX-AL, 4′-methyl-2′-((6-((6-methylpyridin-2-yl)amino)pyrimidin-4-yl)amino)-5′-oxo-5′,6′-dihydrospiro[cyclohexane-1,7′-pyrrolo[3,4-b]pyridine] 1′-oxide], the figures for the 50% inhibitory concentration (IC50) at MNK2 and in the assay with TMD-8 cell p-IF4E were 0.1 to 10 nM and 10 to 100 nM, respectively.
The corresponding values for `Cc1cc(Nc2cc(Nc3ccn(C(C)C)n3)ncn2)[n+]([O-])c2c1C(=O)NC21CCCCC1` [Compound XXIX-AAQ, 2′-((6-((1-isopropyl-1H-pyrazol-3-yl)amino)pyrimidin-4-yl)amino)-4′-methyl-5′-oxo-5′,6′-dihydrospiro[cyclohexane-1,7′-pyrrolo[3,4-b]pyridine] 1′-oxide] are 0.1 to 10 nM and 0.1 to 10 nM.
The corresponding values for `Cn1cnc(Nc2cc(Nc3cc4c(s3)C(=O)NC43CCCCC3)ncn2)c1` [Compound XXXI-B, 2′-((6-((1-methyl-1H-imidazol-4-yl)amino)pyrimidin-4-yl)amino)spiro[cyclohexane-1,4′-thieno[2,3-c]pyrrol]-6′(5′H)-one] are 10 to 100 nM and 100 to 1000 nM.
Take `Cc1cc(Nc2cc(Nc3ccn(C(F)(F)F)n3)ncn2)[n+]([O-])c2c1C(=O)NC21CCCCC1` [Compound XXIX-AF, 4′-methyl-5′-oxo-2′-[(6-{[1-(trifluoromethyl)pyrazol-3-yl]amino}pyrimidin-4-yl)amino]-6′H-spiro[cyclohexane-1,7′-pyrrolo[3,4-b]pyridin]-1′-ium-1′-olate]: the half-inhibitory concentration (IC50) at MNK2 and in the assay with TMD-8 cell p-IF4E was 0.1 to 10 nM each time.
Consider `CO[C@H]1C[C@@H](Nc2cc(Nc3cc(C)c4c([n+]3[O-])C3(CCCCC3)NC4=O)ncn2)C1` [Compound XXIX-AAE, 2′-((6-((cis-3-methoxycyclobutyl)amino)pyrimidin-4-yl)amino)-4′-methyl-5′-oxo-5′,6′-dihydrospiro[cyclohexane-1,7′-pyrrolo[3,4-b]pyridine] 1′-oxide], for which the IC50 on MNK2 and in the assay with TMD-8 cell p-IF4E was 0.1 to 10 nM each time.
In the case of `COc1c(Nc2nc3c(s2)C(=O)NC32CCCCC2)ncnc1N[C@H]1CCOC1` [Compound XXVIII-F, (S)-2′-((5-methoxy-6-((tetrahydrofuran-3-yl)amino)pyrimidin-4-yl)amino)spiro[cyclohexane-1,4′-pyrrolo[3,4-d]thiazol]-6′(5′H)-one], the 50% inhibitory concentration (IC50) on MNK2 is > 1000 nM.
With `Cc1nc(Nc2ccccn2)cc(Nc2cc(C)c3c([n+]2[O-])C2(CCCCC2)NC3=O)n1` [Compound XXIX-AAB, 4′-methyl-2′-((2-methyl-6-(pyridin-2-ylamino)pyrimidin-4-yl)amino)-5′-oxo-5′,6′-dihydrospiro[cyclohexane-1,7′-pyrrolo[3,4-b]pyridine] 1′-oxide], the concentration for half-maximal inhibition (IC50) on MNK2 is 100 to 1000 nM.
On the same count and under the same terms, the result for `CCOC(=O)C1CCc2c(sc3ncnc(Nc4cc5c(s4)C(=O)NC54CCCCC4)c23)C1` (centres unmarked) [Compound XXV-5, Ethyl 4-((6′-oxo-5′,6′-dihydrospiro[cyclohexane-1,4′-thieno[2,3-c]pyrrol]-2′-yl)amino)-5,6,7,8-tetrahydrobenzo[4,5]thieno[2,3-d]pyrimidine-7-carboxylate] reads 100 to 1000 nM; that for `O=C1NC2(CCCCC2)c2cc(Nc3cc(N4CCC(F)(F)CC4)ncn3)sc21` [Compound XXIII-L, 2′-((6-(4,4-Difluoropiperidin-1-yl)pyrimidin-4-yl)amino)spiro[cyclohexane-1,4′-thieno[2,3-c]pyrrol]-6′(5′H)-one], > 1000 nM.
Same read-out and setting: the result for `O=C1NC2(CCCCC2)c2cc(Nc3cc(Cl)ncn3)sc21` [Compound XXIII-G, 2′-((6-Chloropyrimidin-4-yl)amino)spiro[cyclohexane-1,4′-thieno[2,3-c]pyrrol]-6′(5′H)-one] reads 10 to 100 nM.
For `O=C1NC2(CCCCC2)c2cc(Nc3cc(Nc4ccccc4F)ncn3)sc21` [Compound XXIV-E, 2′-((6-((2-fluorophenyl)amino)pyrimidin-4-yl)amino)spiro[cyclohexane-1,4′-thieno[2,3-c]pyrrol]-6′(5′H)-one], at MNK2, the IC50 fell in the range of 10 to 100 nM.
The same measure, in the same setting: the result for `CC(=O)N(C)c1cccc(Nc2cc(Nc3nc4c(s3)C(=O)NC43CCCCC3)ncn2)c1` [Compound XXVIII-I, N-methyl-N-(3-((6-((6′-oxo-5′,6′-dihydrospiro[cyclohexane-1,4′-pyrrolo[3,4-d]thiazol]-2′-yl)amino)pyrimidin-4-yl)amino)phenyl)acetamide] reads 10 to 100 nM.
On the same count and under the same terms, the result for `CN(C)C(=O)C1CCc2c(sc3ncnc(Nc4cc5c(s4)C(=O)NC54CCCCC4)c23)C1` (centres unmarked) [Compound XXV-B, N,N-Dimethyl-4-((6′-oxo-5′,6′-dihydrospiro[cyclohexane-1,4′-thieno[2,3-c]pyrrol]-2′-yl)amino)-5,6,7,8-tetrahydrobenzo[4,5]thieno[2,3-d]pyrimidine-7-carboxamide] reads 10 to 100 nM; that for `O=C1NC2(CCCCC2)c2cc(Nc3cc(NC4CCNC4)ncn3)sc21` (centres unmarked) [Compound XXIII-R, 2′-((6-(pyrrolidin-3-ylamino)pyrimidin-4-yl)amino)spiro[cyclohexane-1,4′-thieno[2,3-c]pyrrol]-6′(5′H)-one], 100 to 1000 nM; that for `COC(=O)C1(Nc2cc(Nc3cc(C)c4c([n+]3[O-])C3(CCCCC3)NC4=O)ncn2)CCOC1` (centres unmarked) [Compound XXIX-AAG, 2′-((6-((3-(methoxycarbonyl)tetrahydrofuran-3-yl)amino)pyrimidin-4-yl)amino)-4′-methyl-5′-oxo-5′,6′-dihydrospiro[cyclohexane-1,7′-pyrrolo[3,4-b]pyridine] 1′-oxide], 100 to 1000 nM.
On the same count and under the same terms, the result for `Nc1cc(Nc2cc3c(s2)C(=O)NC32CCOCC2)ncn1` [Compound XXII, 2′-((6-Aminopyrimidin-4-yl)amino)-2,3,5,6-tetrahydrospiro[pyran-4,4′-thieno[2,3-c]pyrrol]-6′(5′H)-one] reads 10 to 100 nM; that for `COCCCNc1cc(Nc2cc(C)c3c([n+]2[O-])C2(CCCCC2)NC3=O)ncn1` [Compound XXIX-C, 2′-((6-((3-methoxypropyl)amino)pyrimidin-4-yl)amino)-4′-methyl-5′-oxo-5′,6′-dihydrospiro[cyclohexane-1,7′-pyrrolo[3,4-b]pyridine] 1′-oxide], 10 to 100 nM; that for `Nc1cc(Nc2cc3c(s2)C(=O)NC32CCCC2)ncn1` [Compound X-E, 2′-((6-aminopyrimidin-4-yl)amino)spiro[cyclopentane-1,4′-thieno[2,3-c]pyrrol]-6′(5′H)-one], 10 to 100 nM.
`Cc1cc(Nc2ncnc3[nH]ncc23)[n+]([O-])c2c1C(=O)NC21CCCCC1` [Compound XXIX-AAH, 2′-((1H-pyrazolo[3,4-d]pyrimidin-4-yl)amino)-4′-methyl-5′-oxo-5′,6′-dihydrospiro[cyclohexane-1,7′-pyrrolo[3,4-b]pyridine] 1′-oxide]: on MNK2, the half-inhibitory concentration (IC50) lay within 10 to 100 nM.
Still for that read-out and setting: the same measure for `O=C1NC2(CCCCC2)c2cc(Nc3cc(N4CCCC4)ncn3)sc21` [Compound XXIII-H, 2′-((6-(Pyrrolidin-1-yl)pyrimidin-4-yl)amino)spiro[cyclohexane-1,4′-thieno[2,3-c]pyrrol]-6′(5′H)-one]: > 1000 nM.
Still for that read-out and setting: the same measure for `O=C1NC2(CCCCC2)c2cc(Nc3cc(NC4CCCCC4)ncn3)sc21` [Compound XXIV-J, 2′-((6-(cyclohexylamino)pyrimidin-4-yl)amino)spiro[cyclohexane-1,4′-thieno[2,3-c]pyrrol]-6′(5′H)-one]: 10 to 100 nM.
On the same count and under the same terms, the same measure for `C[C@@H]1CN(C(=O)C2CCc3c(sc4ncnc(Nc5cc6c(s5)C(=O)NC65CCCCC5)c34)C2)CCN1C` (stereo partly drawn) [Compound XXV-A, 2′-((7-((R)-3,4-Dimethylpiperazine-1-carbonyl)-5,6,7,8-tetrahydrobenzo[4,5]thieno[2,3-d]pyrimidin-4-yl)amino)spiro[cyclohexane-1,4′-thieno[2,3-c]pyrrol]-6′(5′H)-one]: 10 to 100 nM; for `Nc1cc(Nc2sc3c(c2Cl)C2(CCCCC2)NC3=O)ncn1` [Compound XXI, 2′-((6-Aminopyrimidin-4-yl)amino)-3′-chlorospiro[cyclohexane-1,4′-thieno[2,3-c]pyrrol]-6′(5′H)-one]: 100 to 1000 nM; for `Cc1cccnc1Nc1cc(Nc2cc3c(s2)C(=O)NC32CCCCC2)ncn1` [Compound XXIII-S, 2′-((6-((3-methylpyridin-2-yl)amino)pyrimidin-4-yl)amino)spiro [cyclohexane-1,4′-thieno[2,3-c]pyrrol]-6′(5′H)-one]: 100 to 1000 nM.
At MNK2, `Cc1cc(Nc2cc3c(s2)C(=O)NC32CCCCC2)ncn1` [Compound XXIII-I, 2′-((6-Methylpyrimidin-4-yl)amino)spiro[cyclohexane-1,4′-thieno[2,3-c]pyrrol]-6′(5′H)-one] yielded an IC50 of 100 to 1000 nM.
